Usually pIC50 stands for −log10 of the IC50, conventionally taken in molar units.

pIC50: −log10 of the molar value. Activity calls are given as the source filed them. The rule behind the calls is not given here.

Experimental findings from ChEMBL document CHEMBL3351825, “Polyoxypregnane steroids from the stems of Marsdenia tenacissima” (J Nat Prod, 2014) are described below.

The nature of data set [1]: Reversal of P-gp-mediated resistance to doxorubicin in human SW620/AD300 cells assessed as reduction in doxorubin IC50 at 10 uM after 72 hrs by SRB assay. The format is cell-based. Particulars: SW620/AD300, 72 h. For orientation: Sulforhodamine B stains cellular protein and so reports cell mass.
The test system of data set [2] is NCI-H292. Description: Cytotoxicity against human NCI-H292 cells after 72 hrs by SRB assay. Particulars: NCI-H292, 72 h. The data set is classed as functional, cell-based.
The nature of data set [3]: Cytotoxicity against human H460/Vbl cells after 72 hrs by SRB assay.
Data set [4] in a line: Cytotoxicity against human H460 cells after 72 hrs by SRB assay. The conditions noted are these: NCI-H460, 72 h.
The next data set is described as follows: cells. Particulars: Homo sapiens, SW620/AD300, 72 h.
In data set [5] the test system is SW-620. Description: Ratio of IC50 for human SW620/AD300 cells to IC50 for human SW620 cells. The data set is classed as functional.
The test system of data set [6] is SW-620. Description: cells. The conditions noted are these: Homo sapiens, SW-620, 72 h.
Description: Growth inhibition of human SW620 cells after 72 hrs by SRB assay
The subject of data set [7] is NCI-H292. Put plainly: Induction of apoptosis in human NCI-H292 cells at 10 uM after 24 hrs using annexin V by flow cytometry in presence of 1 uM gefitinib. The format is functional, cell-based. Background: A flow cytometer gives signals particle by particle.
Data set [8] is described as follows: Reversal of P-gp-mediated resistance to doxorubicin in human SW620 cells assessed as reduction in doxorubin IC50 at 2 uM after 72 hrs by SRB assay. Particulars: SW-620, 72 h. The data set is classed as cell-based.
In data set [9] the target is T1, ATP-dependent translocase ABCB1 (Homo sapiens, UniProt P08183). Put plainly: Inhibition of P-gp in human SW620/AD300 cells assessed as reduction in rhodamine 123 efflux by flow cytometry. The format is cell-based.
T1 sequence (P08183 whole entry): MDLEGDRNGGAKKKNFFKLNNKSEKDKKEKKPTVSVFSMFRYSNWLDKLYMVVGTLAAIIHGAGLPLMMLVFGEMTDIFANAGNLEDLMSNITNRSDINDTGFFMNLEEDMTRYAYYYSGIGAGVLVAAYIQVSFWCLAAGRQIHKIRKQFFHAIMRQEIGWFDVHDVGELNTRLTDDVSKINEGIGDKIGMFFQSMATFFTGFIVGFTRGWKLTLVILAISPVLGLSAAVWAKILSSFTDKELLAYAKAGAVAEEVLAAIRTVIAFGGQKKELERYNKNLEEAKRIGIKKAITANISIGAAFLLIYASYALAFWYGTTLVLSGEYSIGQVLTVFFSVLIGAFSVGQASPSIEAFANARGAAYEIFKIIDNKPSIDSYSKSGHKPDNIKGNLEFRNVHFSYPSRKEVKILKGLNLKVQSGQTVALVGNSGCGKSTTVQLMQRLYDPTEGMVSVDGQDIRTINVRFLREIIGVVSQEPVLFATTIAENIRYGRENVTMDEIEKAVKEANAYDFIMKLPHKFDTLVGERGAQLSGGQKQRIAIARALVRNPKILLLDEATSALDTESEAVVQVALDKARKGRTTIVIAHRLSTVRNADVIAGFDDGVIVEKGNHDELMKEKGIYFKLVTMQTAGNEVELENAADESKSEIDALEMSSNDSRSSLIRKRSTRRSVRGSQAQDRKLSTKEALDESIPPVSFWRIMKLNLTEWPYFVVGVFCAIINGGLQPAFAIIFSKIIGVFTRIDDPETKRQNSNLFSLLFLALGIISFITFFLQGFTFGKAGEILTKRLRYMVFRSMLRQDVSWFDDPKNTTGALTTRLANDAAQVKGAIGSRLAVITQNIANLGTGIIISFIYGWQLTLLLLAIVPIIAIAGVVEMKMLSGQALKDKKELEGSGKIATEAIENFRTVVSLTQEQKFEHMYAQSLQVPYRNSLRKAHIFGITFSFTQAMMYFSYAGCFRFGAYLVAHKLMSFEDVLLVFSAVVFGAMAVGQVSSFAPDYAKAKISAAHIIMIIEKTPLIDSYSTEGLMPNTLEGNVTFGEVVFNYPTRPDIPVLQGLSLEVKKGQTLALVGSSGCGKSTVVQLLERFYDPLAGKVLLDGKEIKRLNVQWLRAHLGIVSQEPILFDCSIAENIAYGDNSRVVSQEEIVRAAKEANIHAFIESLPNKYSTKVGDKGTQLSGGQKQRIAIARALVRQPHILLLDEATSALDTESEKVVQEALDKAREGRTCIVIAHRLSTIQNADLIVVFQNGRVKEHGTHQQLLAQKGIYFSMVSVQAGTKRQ
Data set [10] deals with NCI-H460. Description: Induction of apoptosis in human NCI-H460 cells at 10 uM after 24 hrs using annexin V by flow cytometry. The data set is classed as functional, cell-based.
Data set [11] can be described thus: Reversal of P-gp-mediated resistance to cisplatin in human SW620 cells assessed as reduction in doxorubin IC50 at 2 uM after 72 hrs by SRB assay. The data set is classed as cell-based. Particulars: SW-620, 72 h.
Data set [12] can be described thus: Reversal of P-gp-mediated resistance to cisplatin in human SW620 cells assessed as reduction in doxorubin IC50 at 10 uM after 72 hrs by SRB assay. Particulars: SW-620, 72 h. The format is cell-based.
Data set [13] in a line: Reversal of P-gp-mediated resistance to cisplatin in human SW620/AD300 cells assessed as reduction in doxorubin IC50 at 2 uM after 72 hrs by SRB assay. The format is cell-based. The conditions noted are these: SW620/AD300, 72 h.
Data set [14] deals with NCI-H460. Description: Induction of apoptosis in human NCI-H460 cells at 10 uM after 24 hrs using annexin V by flow cytometry in presence of 1 uM gefitinib. The data set is classed as functional, cell-based.
Data set [15] addresses T1, ATP-dependent translocase ABCB1. Put plainly: Inhibition of P-gp in human SW620/AD300 cells assessed as reduction in rhodamine 123 efflux at 50 uM by flow cytometry. The format is cell-based. The conditions noted are these: sw620/ad300, 50 µM.
The test system of data set [16] is NCI-H460. Put plainly: Induction of apoptosis in human NCI-H460/Vbl cells at 10 uM after 24 hrs using annexin V by flow cytometry in presence of 1 uM gefitinib. The data set is classed as functional, cell-based.
Data set [17] relates to NCI-H460. Put plainly: Induction of apoptosis in human NCI-H460/Vbl cells at 10 uM after 24 hrs using annexin V by flow cytometry. The data set is classed as functional, cell-based.
Data set [18] concerns NCI-H292. Put plainly: Induction of apoptosis in human NCI-H292 cells at 10 uM after 24 hrs using annexin V by flow cytometry. The data set is classed as functional, cell-based.
Data set [19] in a line: Reversal of P-gp-mediated resistance to doxorubicin in human SW620/AD300 cells assessed as reduction in doxorubin IC50 at 2 uM after 72 hrs by SRB assay. The data set is classed as cell-based. The conditions noted are these: SW620/AD300, 72 h.
The nature of data set [20]: Reversal of P-gp-mediated resistance to cisplatin in human SW620/AD300 cells assessed as reduction in doxorubin IC50 at 10 uM after 72 hrs by SRB assay. The format is cell-based. The conditions noted are these: SW620/AD300, 72 h.
Data set [21] deals with SW-620. Put plainly: Reversal of P-gp-mediated resistance assessed as ratio of doxorubicin IC50 for human SW620/AD300 cells to doxorubicin IC50 for human SW620 cells in presence of compound at 400 nM. The format is cell-based.
Data set [22] is described as follows: Reversal of P-gp-mediated resistance to doxorubicin in human SW620/AD300 cells assessed as reduction in doxorubin IC50 at 400 nM after 72 hrs by SRB assay. The format is cell-based. Particulars: SW620/AD300, 72 h.
The nature of data set [23]: Reversal of P-gp-mediated resistance to doxorubicin in human SW620 cells assessed as reduction in doxorubin IC50 at 400 nM after 72 hrs by SRB assay. The format is cell-based. Particulars: SW-620, 72 h.

Take `CO[C@H]1[C@@H](O)[C@H](O[C@@H]2[C@@H](C)O[C@@H](O[C@H]3CC[C@@]4(C)[C@@H](CC[C@@]56O[C@@]57CC[C@H](C(C)=O)[C@@]7(C)[C@H](O)[C@@H](OC(=O)c5ccccc5)[C@H]46)C3)C[C@H]2OC)O[C@H](C)[C@H]1O`: the pIC50 in data set [1] is 4.63.

Regarding `CO[C@H]1[C@@H](O)[C@H](O[C@@H]2[C@@H](C)O[C@@H](O[C@H]3CC[C@@]4(C)[C@@H](CC[C@@]56O[C@@]57CC[C@H](C(C)=O)[C@@]7(C)[C@H](O)[C@@H](O)[C@H]46)C3)C[C@H]2OC)O[C@H](C)[C@H]1O[C@@H]1O[C@H](CO)[C@@H](O)[C@H](O)[C@H]1O`, in [1], the pIC50 is 4.61.

Regarding `C#Cc1cccc(Nc2ncnc3cc(OCCOC)c(OCCOC)cc23)c1` [ERLOTINIB], the pIC50 with NCI-H292 [2] is 6.00; in data set [3], 4.67; in data set [4] it was 5.02.

In the case of `COc1cccc2c1C(=O)c1c(O)c3c(c(O)c1C2=O)C[C@@](O)(C(=O)CO)C[C@@H]3O[C@H]1C[C@H](N)[C@H](O)[C@H](C)O1` [DOXORUBICIN], the pIC50 is 4.55 in “cells” and 6.77 in the data set with SW-620 [6]. Moreover, the “Ratio IC50” value with SW-620 [5] stood at 166.

Take `CCC(C)C(=O)O[C@@H]1[C@@H](OC(C)=O)[C@]2(C)[C@@H](C(C)=O)CC[C@@]23O[C@]32CC[C@H]3CC(=O)CC[C@]3(C)[C@@H]12` (stereo not given in full): the result with NCI-H292 [7], in the data set with NCI-H460 [14] and in the data set with NCI-H460 [16] was Active. The pIC50 in [8] is 6.96; in [11] it was 4.94; in data set [12] it was 5.03; in data set [1], 6.07; in data set [13] it was 4.92; in data set [19], 5.68. For the same molecule, the pIC50 in [20] was 4.99. Also, the entries for the “inhibition (INH)” value in [9] and in data set [15] were “Dose-dependent effect” and “Active”, respectively. Moreover, the result with NCI-H460 [10], in the data set with NCI-H460 [17] and in the data set with NCI-H292 [18] was inactive.

Regarding `C/C=C(\C)C(=O)O[C@@H]1[C@@H](O)[C@]2(C)[C@@H](C(C)=O)CC[C@@]23O[C@]32CC[C@H]3C[C@@H](O[C@H]4C[C@@H](OC)[C@H](O[C@@H]5O[C@H](C)[C@@H](O[C@@H]6O[C@H](CO)[C@@H](O)[C@H](O)[C@H]6O)[C@@H](OC)[C@H]5O)[C@@H](C)O4)CC[C@]3(C)[C@@H]12`, the pIC50 in data set [1] is 4.62.

Regarding `C/C=C(\C)C(=O)O[C@@H]1[C@@H](O)[C@]2(C)[C@@H](C(C)=O)CC[C@@]23O[C@]32CC[C@H]3C[C@@H](O[C@H]4C[C@@H](OC)[C@H](O[C@@H]5O[C@H](C)[C@@H](O)[C@@H](OC)[C@H]5O)[C@@H](C)O4)CC[C@]3(C)[C@@H]12`, the pIC50 in [1] is 4.59.

Turning to `CO[C@H]1[C@@H](O)[C@H](O[C@@H]2[C@@H](C)O[C@@H](O[C@H]3CC[C@@]4(C)[C@@H](CC[C@@]56O[C@@]57CC[C@H](C(C)=O)[C@@]7(C)[C@H](OC(C)=O)[C@@H](OC(=O)c5ccccc5)[C@H]46)C3)C[C@H]2OC)O[C@H](C)[C@H]1O[C@@H]1O[C@H](CO)[C@@H](O[C@@H]2O[C@H](CO)[C@@H](O)[C@H](O)[C@H]2O)[C@H](O)[C@H]1O`, the pIC50 in data set [1] was 4.57.

In the case of `CO[C@H]1[C@@H](O)[C@H](O[C@@H]2[C@@H](C)O[C@@H](O[C@H]3CC[C@@]4(C)[C@@H](CC[C@@]56O[C@@]57CC[C@H](C(C)=O)[C@@]7(C)[C@H](O)[C@@H](OC(C)=O)[C@H]46)C3)C[C@H]2OC)O[C@H](C)[C@H]1O`, the pIC50 in data set [1] was 4.63.

With `C/C=C/C[C@@H](C)C(=O)[C@H]1C(=O)N[C@@H](C(C)C)C(=O)N(C)CC(=O)N(C)[C@@H](CC(C)C)C(=O)N[C@@H](C(C)C)C(=O)N(C)[C@@H](CC(C)C)C(=O)N[C@@H](C)C(=O)N[C@H](C)C(=O)N(C)[C@@H](CC(C)C)C(=O)N(C)[C@@H](CC(C)C)C(=O)N(C)[C@@H](C(C)C)C(=O)N1C` [VALSPODAR], the Ratio IC50 with SW-620 [21] came out at 2. The pIC50 was 6.66 in data set [22] and 7.00 in data set [23].
